Measurements: US20110237599A1, “HETEROCYCLIC INHIBITORS OF HISTAMINE RECEPTORS FOR THE TREATMENT OF DISEASE” (Kalypsys, Inc., priority 2010, published 2011)

Columns and labels:
human H4 = biological target: T1, human H4 (Homo sapiens, UniProt Q9H3N8); assay: In vitro histamine receptor cell-based assay (aequorin bioluminescence), H4 antagonism; settings: CHO-K1 cells expressing human H4, aequorin and Gα16; histamine at EC80; read-out: H4 Antagonist EC50
T1 construct: host or cells: CHO-K1
Description: (§1) The cell-based assays utilize an aequorin dependent bioluminescence signal. Doubly-transfected, stable CHO-K1 cell lines expressing human H1 or H4, mitochondrion-targeted aequorin, and (H4 only) human G protein Gα16 are obtained from Perkin-Elmer. Cells are maintained in F12 (Ham's) growth medium, containing 10% (vol./vol.) fetal bovine serum, penicillin (100 IU/mL), streptomycin (0.1 mg/mL), zeocin (0.25 mg/mL) and geneticin (0.40 mg/mL). Cell media components are from Invitrogen, Inc. One day prior to assay, the growth medium is replaced with the same, excluding zeocin and geneticin.
(§2) For assay preparation, growth medium is aspirated, and cells are rinsed with calcium-free, magnesium-free phosphate-buffered saline, followed by two to three minute incubation in Versene (Invitrogen, Inc.) at 37° C. Assay medium (DMEM:F12 [50:50], phenol-red free, containing 1 mg/mL protease-free bovine serum albumin) is added to collect the released cells, which are then centrifuged. The cell pellet is re-suspended in assay medium, centrifuged once more, and re-suspended in assay medium to a final density of 5×10^6 cells/mL. Coelenterazine-h dye (500 μM in ethanol) is added to a final concentration of 5 μM, and mixed immediately. The conical tube containing the cells is then wrapped with foil to protect the light-sensitive dye. The cells are incubated for four hours further at room temperature (approximately 21° C.) with end-over-end rotation to keep them in suspension.
(§3) Just before assay, the dye-loaded cells are diluted to 0.75×10^6 cells/mL (H1 receptor) or 1.5×10^6 cells/mL (H4 receptor) with additional assay medium. Cells are dispensed to 1536 well micro-titer plates at 3 μL/well. To assay receptor antagonism, 60 nl of 100× concentration test compounds in 100% dimethyl sulfoxide (DMSO) are dispensed to the wells, one compound per well, by passive pin transfer, and the plates are incubated for 15 minutes at room temperature. Assay plates are then transferred to a Lumilux bioluminescence plate reader (Perkin-Elmer) equipped with an automated 1536 disposable tip pipette. The pipette dispenses 3 μL/well of agonist (histamine, at twice the final concentration, where final concentration is a previously determined EC80) in assay medium, with concurrent bioluminescence detection. […]
(§4) CCD image capture on the Lumilux includes a 5 second baseline read prior to agonist addition, and generally a 40 second read per plate after agonist addition. A decrease in bioluminescence signal (measured either as area-under-the-curve, or maximum signal amplitude minus minimum signal amplitude) correlates with receptor antagonism in a dose dependent manner. […] Efficacy is measured as a percentage of positive control activity.

human H1 = biological target: T2, human H1 (Homo sapiens, UniProt P35367); assay: In vitro histamine receptor cell-based assay (aequorin bioluminescence), H1 antagonism; settings: CHO-K1 cells expressing human H1 and aequorin; histamine at EC80; read-out: H1 Antagonist EC50
T2 construct: host or cells: CHO-K1
Description: as §1, §2, §3, §4

T2 sequence (P35367 whole entry): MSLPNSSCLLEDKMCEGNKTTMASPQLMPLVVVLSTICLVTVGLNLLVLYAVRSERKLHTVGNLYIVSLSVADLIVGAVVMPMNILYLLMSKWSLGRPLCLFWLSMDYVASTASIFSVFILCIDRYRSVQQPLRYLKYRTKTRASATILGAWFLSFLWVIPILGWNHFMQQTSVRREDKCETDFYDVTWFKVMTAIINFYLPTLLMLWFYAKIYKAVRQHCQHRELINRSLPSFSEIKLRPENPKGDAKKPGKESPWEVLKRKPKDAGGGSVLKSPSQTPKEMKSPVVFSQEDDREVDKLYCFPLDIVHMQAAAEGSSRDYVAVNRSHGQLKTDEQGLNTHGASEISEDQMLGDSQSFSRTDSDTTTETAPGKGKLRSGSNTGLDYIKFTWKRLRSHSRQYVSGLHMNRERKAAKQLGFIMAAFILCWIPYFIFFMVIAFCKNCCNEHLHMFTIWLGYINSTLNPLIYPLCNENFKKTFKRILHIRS

EC50 (human H4) | EC50 (human H1) | SMILES
≤ 10 µM | > 10 µM | Cc1nc2c3sc(Cl)cc3nc(N3CCN(C)CC3)n2n1 [Example 3, 8-chloro-2-methyl-5-(4-methylpiperazin-1-yl)thieno[2,3-e][1,2,4]triazolo[1,5-c]pyrimidine]
> 10 µM | > 10 µM | Cc1nc2c3sc(Cl)cc3nc(N3CCNCC3)n2n1 [Example 4, 8-chloro-2-methyl-5-(piperazin-1-yl)thieno[2,3-e][1,2,4]triazolo[1,5-c]pyrimidine]
≤ 10 µM | > 10 µM | Cc1nc2c3cc(Cl)sc3nc(N3CCNCC3)n2n1 [Example 2, 8-chloro-2-methyl-5-(piperazin-1-yl)thieno[3,2-e][1,2,4]-triazolo[1,5-c]pyrimidine]
≤ 10 µM | > 10 µM | Cc1nc2c3cc(Cl)sc3nc(N3CCN(C)CC3)n2n1 [Example 1, 8-chloro-2-methyl-5-(4-methylpiperazin-1-yl)thieno[3,2-e][1,2,4]triazolo[1,5-c]pyrimidine]
